Earlier results in patent US9764130B2, “Transdermal systems for the delivery of therapeutic agents including granisetron using iontophoresis” (Teva Pharmaceuticals International GmbH, priority 2005, dated 2017).

Settings: transdermal iontophoresis from anode pad; hairless rat animal model; AAPS 2003/2004 abstracts

## CN1C2CCCC1CC(NC(=O)c1nn(C)c3ccccc13)C2 (stereo not shown) [granisetron]
  time within which a therapeutic dosage is achieved with iontophoresis: two
